Columns and labels:
urinary bladder strips [1] = assay: Extension of rat urinary bladder strips under 1 g tension (isotonic transducer); settings: 100 nM adrenomedullin in Tyrode's solution, tension 1 g, male rat bladder strips, repeated five times, FIG. 2
Source text: 8 to 16 weeks old male rats were sacrificed by hammering their heads. Thereafter, the rats were decapitated, followed by exsanguination. The urinary bladders were isolated from the rats. Each isolated urinary bladder was cut into four portions, thereby obtaining urinary bladder strips (FIG. 1).
The effect of adrenomedullin on the rat urinary bladder was examined by measuring contractions of the urinary bladder strips using an isotonic transducer TD-112S (manufactured Nippon Kohden Corporation) where the tension was 1 g.
The urinary bladder strips were firstly immersed in 30 ml of Tyrode's solution with 100 nM adrenomedullin (experimental sample) or without it (control sample). In this situation, the sections were attached to the […] transducer where the tension was 1 g, to continuously measure relaxation of the urinary bladder. The composition of the Tyrode's solution is as follows: 139 mM NaCl, 2.7 mM KCl, 11.9 mM NaHCO3, 2.6 mM MgCl2.6H2O, 0.4 mM NaH2PO4.2H2O, 1.7 mM CaCl2, and 5.5 mM glucose; pH 7.4).
The above-described experiment was repeated five times. Solid colored circles indicate the results of the experimental sample, while plain circles indicate averages of the control sample. Vertical bars indicate the standard deviation of a two-way analysis of variance. The vertical axis indicates the length of relaxation (mm), while the horizontal axis indicate time (minutes).

mesenteric artery = settings: Nakamura et al., Jpn. J. Pharmacol. 67, 259-262 (1995), FIG. 1; cited from earlier work
urinary bladder strips [2] = assay: Static tension and acetylcholine-induced contraction of rat urinary bladder strips (isometric transducer)
Description: Urinary bladder strips were prepared in a manner similar to that of Example 1. The urinary bladder sections were attached to an isometric transducer FD pickup TB611T (manufactured by Nippon Kohden Corporation) in Tyrode's solution. Contraction of the urinary bladder was continuously measured. Firstly, 30 nM to 1 mM acetylcholine was added to the Tyrode's solution. […] In FIG. 3, the vertical axis indicates tension (unit: g), while the horizontal axis indicates time. Contraction induced by acetylcholine was confirmed, followed by washing out acetylcholine. Thereafter, 100 nM adrenomedullin was added to the Tyrode's solution. […] Further, 30 nM to 1 mM acetylcholine was added to the Tyrode's solution. As a result, recontraction of the urinary bladder occured.

urinary bladder = settings: Nishimura et al., British J. Pharmacology, 120, 193-200 (1997), FIG. 6; cited from earlier work

adrenomedullin: synthesized peptide consisting of an amino acid sequence from Tyr in position 1 to Tyr in position 50 of SEQ ID NO: 6 (rat-derived)
extension (length of relaxation) of the urinary bladder wall versus absence of adrenomedullin (urinary bladder strips [1]): more extended | extension of contracted mesenteric artery by addition of adrenomedullin (mesenteric artery): extended by addition of adrenomedullin in a concentration-dependent manner | contraction (static tension) of the urinary bladder after addition of adrenomedullin alone (urinary bladder strips [2]; 100 nM adrenomedullin in Tyrode's solution, after washing out acetylcholine, FIG. 3): not contracted | contraction induced by acetylcholine in the presence of adrenomedullin versus acetylcholine alone (urinary bladder strips [2]; 100 nM adrenomedullin, 30 nM to 1 mM acetylcholine): not significantly different | contraction or extension (active extension) of the urinary bladder on addition of adrenomedullin (urinary bladder): does not cause contraction or extension

Source: patent publication US6852692B1, “Composition for promoting passive extension of bladder smooth muscle” (Shionogi & Co., Ltd., priority 1999, dated 2005)
